Assay results published in patent US9272056B2, “Method to produce hyperpolarised carboxylates” (GE Healthcare AS, priority 2005, dated 2016).

Assay: T1 relaxation in human full blood
Type: physicochemical
Details: human full blood at 37° C.
Description: The amount of alanine, bicarbonate and lactate is dependent on the metabolic status of the tissue under investigation.

Compound: CC(=O)[13C](=O)O [^13C-pyruvate]
- T1 relaxation: about 42 s
